{"source": "patent US20100311642A1", "about": "“USE OF V2 RECEPTOR ANTAGONISTS IN COMBINATION WITH VASO PRESSINERGIC AGNOSTS” (Ferring B.V., priority 2007, published 2010)", "key": {"[1]": {"biological_target": "T1, rat V2 receptor (rV2R) (Rattus norvegicus, UniProt Q00788)", "T1 construct": "expressed in transfected cells; host or cells: HEK-293", "T1 sequence (Q00788 whole entry)": "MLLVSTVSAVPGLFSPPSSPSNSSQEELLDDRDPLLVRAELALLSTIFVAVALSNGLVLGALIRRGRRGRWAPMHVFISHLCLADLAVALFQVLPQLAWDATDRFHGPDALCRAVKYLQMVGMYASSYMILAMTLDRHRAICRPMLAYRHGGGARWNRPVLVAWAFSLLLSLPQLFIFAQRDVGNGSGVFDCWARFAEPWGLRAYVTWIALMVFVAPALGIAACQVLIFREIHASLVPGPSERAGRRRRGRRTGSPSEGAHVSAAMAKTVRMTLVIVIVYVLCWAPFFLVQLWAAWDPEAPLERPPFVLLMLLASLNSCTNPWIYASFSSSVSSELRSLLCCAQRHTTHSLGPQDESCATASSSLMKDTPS", "test": "Agonist transcriptional reporter gene assay, rat V2 receptor", "assay_type": "cell-based", "details": "rV2, HEK-293 reporter gene"}, "[2]": {"biological_target": "T2, human V2 receptor (hV2R) (Homo sapiens, UniProt P30518)", "T2 construct": "expressed in transfected cells; host or cells: HEK-293", "T2 sequence (P30518 whole entry)": "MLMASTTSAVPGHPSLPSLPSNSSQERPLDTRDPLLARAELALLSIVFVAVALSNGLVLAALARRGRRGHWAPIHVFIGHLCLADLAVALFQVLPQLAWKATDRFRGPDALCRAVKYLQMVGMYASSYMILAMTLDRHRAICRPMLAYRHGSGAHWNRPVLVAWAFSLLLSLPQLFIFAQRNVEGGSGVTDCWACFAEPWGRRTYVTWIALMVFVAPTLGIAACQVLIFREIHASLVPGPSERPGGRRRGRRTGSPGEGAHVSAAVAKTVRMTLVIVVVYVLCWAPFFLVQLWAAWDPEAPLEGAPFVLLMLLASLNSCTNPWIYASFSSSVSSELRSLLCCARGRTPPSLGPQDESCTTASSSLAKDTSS", "test": "Antagonist transcriptional reporter gene assay, human V2 receptor", "assay_type": "cell-based", "details": "hV2, HEK-293 reporter gene, vs AVP", "procedure": "(§1) Agonist activity of compounds on the human V2 receptor (hV2R) and the rat V2 receptor (rV2R) was determined in a transcriptional reporter gene assay in which HEK-293 cells were transiently transfected with either the human or rat V2 receptor, and a reporter DNA containing cyclic-AMP responsive promoter elements regulating expression of firefly luciferase. See Castarion, M. J., Spevak, W., Biochem Biophys Res Commun.1994 Jan.\n(§2) Antagonist activity of compounds on the human V2 receptor (hV2R) and the rat V2 receptor (rV2R) was determined in a transcriptional reporter gene assay as in section III.A; see Castañón, M. J. et al. supra. […] Ki values were calculated from IC50 values."}, "[3]": {"biological_target": "T3, human V1a receptor (hV1aR) (Homo sapiens, UniProt P37288)", "T3 construct": "expressed in transfected cells; host or cells: HEK-293", "T3 sequence (P37288 whole entry)": "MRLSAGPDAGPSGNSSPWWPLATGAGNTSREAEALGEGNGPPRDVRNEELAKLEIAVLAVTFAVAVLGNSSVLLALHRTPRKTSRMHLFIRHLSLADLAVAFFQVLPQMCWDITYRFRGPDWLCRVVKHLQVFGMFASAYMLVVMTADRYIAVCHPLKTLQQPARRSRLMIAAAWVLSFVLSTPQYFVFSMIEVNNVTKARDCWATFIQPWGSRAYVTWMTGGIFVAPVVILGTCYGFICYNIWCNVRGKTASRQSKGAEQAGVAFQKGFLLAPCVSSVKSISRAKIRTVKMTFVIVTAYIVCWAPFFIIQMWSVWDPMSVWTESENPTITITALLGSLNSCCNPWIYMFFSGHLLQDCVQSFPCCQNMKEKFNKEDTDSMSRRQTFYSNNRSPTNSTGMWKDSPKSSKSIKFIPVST", "test": "Antagonist transcriptional reporter gene assay, human V1a receptor", "assay_type": "cell-based", "details": "hV1a, HEK-293 reporter gene, vs AVP", "procedure": "(§3) Agonist activity of compounds on the human V1a receptor (hV1aR) and the rat V1a receptor (rV 1 aR) was determined in a transcriptional reporter gene assay in which HEK-293 cells were transiently co-transfected with either the human or rat V1a receptor, and a reporter DNA containing intracellular calcium responsive promoter elements regulating expression of firefly luciferase.\n(§4) Antagonist activity of compounds on the human V1a receptor (hV1aR) and the rat V1a receptor (rV 1 aR) was determined in a transcriptional reporter gene assay as in section III.A; see Boss, V. et al. supra. […] Ki values were calculated from IC50 values."}, "[4]": {"biological_target": "T1, rat V2 receptor (rV2R)", "test": "Antagonist transcriptional reporter gene assay, rat V2 receptor", "assay_type": "cell-based", "details": "rV2, HEK-293 reporter gene, vs AVP; for Ki: Ki calculated from IC50, read-out: Geomean Ki", "procedure": "as §1, §2"}, "[5]": {"biological_target": "T4, rat V1a receptor (rV1aR) (Rattus norvegicus, UniProt P30560)", "T4 construct": "expressed in transfected cells; host or cells: HEK-293", "T4 sequence (P30560 whole entry)": "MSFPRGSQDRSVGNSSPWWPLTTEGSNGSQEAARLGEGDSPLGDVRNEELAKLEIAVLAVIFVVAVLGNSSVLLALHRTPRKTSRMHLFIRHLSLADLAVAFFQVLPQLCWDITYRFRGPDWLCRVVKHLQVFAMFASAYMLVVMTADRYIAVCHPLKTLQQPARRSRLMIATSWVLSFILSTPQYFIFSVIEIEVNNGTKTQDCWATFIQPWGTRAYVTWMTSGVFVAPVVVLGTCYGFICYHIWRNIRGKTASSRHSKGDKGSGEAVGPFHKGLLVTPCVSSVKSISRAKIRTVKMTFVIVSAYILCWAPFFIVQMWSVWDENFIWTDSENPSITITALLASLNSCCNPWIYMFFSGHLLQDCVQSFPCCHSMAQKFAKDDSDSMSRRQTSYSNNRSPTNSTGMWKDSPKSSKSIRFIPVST", "test": "Antagonist transcriptional reporter gene assay, rat V1a receptor", "assay_type": "cell-based", "details": "rV1a, HEK-293 reporter gene, vs AVP; for Ki: Ki calculated from IC50, read-out: Geomean Ki", "procedure": "as §3, §4"}, "[6]": {"system": "sheep model of sepsis", "test": "Sheep model of sepsis (smoke inhalation + Pseudomonas aeruginosa)", "assay_type": "in vivo", "details": "septic sheep, continuous i.v. infusion titrated, 24 hours", "description": "A. Description of Model & Experimental Design • Septic shock is caused by hypotension secondary to vasodilation. […] The combination of a selective V2 receptor agonist, desmopressin, and a selective V1a receptor agonist models to some extent the non-selective V1a/V2 receptor agonist activity of vasopressin and other related compounds having non-selective activity.\nMethod: Sheep are surgically instrumented ahead of the study. After obtaining baseline data, they are anesthetized and insufflated with 48 breaths of cotton smoke and 10^11 colony forming units of Pseudomonas aeruginosa instilled into their airways via a tracheostomy. The sheep are then placed on a ventilator and awakened for the study. They are resuscitated with Ringer's solution to maintain left atrial and central venous pressures and hematocrit at baseline levels. If, despite fluid management, mean arterial pressure (MAP) falls by 10 mm Hg from baseline, a continuous intravenous infusion of AVP, the selective V1a receptor agonist, or the selective V1a receptor agonist+the selective V2 agonist desmopressin is initiated and titrated to keep MAP within this limit, except in a septic control group and in a non-septic sham group. Parameters measured include Mean Arterial Pressure (a measure of vasodilation/hypotension) and Fluid Balance (a measure of vascular leak).\nAdditional information about sepsis model and method available in Murakami K, Bjertnaes L T, Schmalstieg F C, McGuire R, Cox R A, Hawkins H K, Herndon D N, Traber L D, Traber D L (2002): A novel animal model of sepsis after acute lung injury in sheep. Crit. Care Med, 30:2083-2090."}, "[7]": {"system": "venular microvessels in rat mesentery", "test": "Rat mesenteric post-capillary venule permeability (hydraulic conductivity Lp, PAF)", "details": "PAF 10 nM", "procedure": "We tested the hypothesis that the selective V2 receptor agonist desmopressin would potentiate the increase in microvessel permeability induced by platelet activating factor [PAF], an inflammatory mediator involved in sepsis.\nMethod: Individual venular microvessels in rat mesentery were cannulated and perfused with mammalian Ringer containing 10 mg/ml albumin to measure hydraulic conductivity (Lp) by the modified Landis technique. The vessels were then exposed to PAF (10 nM) with monitoring of hydraulic conductivity (Lp). The same vessels are then exposed to a selective V2 receptor agonist, desmopressin, followed by a second exposure to PAF with monitoring of hydraulic conductivity (Lp).\nAdditional information about microvascular permeability model and method available in Curry, FE, “The Measurement of Hydraulic Conductivity”, Microcirculatory Technology, Academic Press, 1986, pp 429-446."}, "[8]": {"biological_target": "T2, human V2 receptor (hV2R)", "test": "Agonist transcriptional reporter gene assay, human V2 receptor", "assay_type": "cell-based", "details": "hV2, HEK-293 reporter gene; for EC50: 5 hours"}, "[9]": {"biological_target": "T3, human V1a receptor (hV1aR)", "test": "Agonist transcriptional reporter gene assay, human V1a receptor", "assay_type": "cell-based", "details": "hV1a, HEK-293 reporter gene; for EC50: 5 hours"}, "[10]": {"biological_target": "T4, rat V1a receptor (rV1aR)", "test": "Agonist transcriptional reporter gene assay, rat V1a receptor", "assay_type": "cell-based", "details": "rV1a, HEK-293 reporter gene"}, "[11]": {"details": "Ki calculated from IC50, read-out: Geomean Ki"}}, "note": "“Also recorded” adds a separate entry of the source. Positions of bridges follow the written chain, without caps; N, C: chain ends. Residues, ends and D or L forms follow the SMILES beside them."}
{"molecule": "ornithine vasopressin [[Orn8] Vasopressin, OVP]", "values": [{"measurement": "Efficacy", "setting": "[1]", "result": 111, "unit": "%"}]}
{"molecule": "Cc1nc2c([nH]1)-c1ccccc1N(C(=O)c1ccc(NC(=O)c3ccccc3-c3ccccc3)cc1)CC2", "note": "[conivaptan]", "values": [{"measurement": "Efficacy Antag", "setting": "[2]", "result": 92, "unit": "%"}, {"measurement": "Efficacy Antag", "setting": "[3]", "result": 81, "unit": "%"}, {"measurement": "Efficacy Antag", "setting": "[4]", "result": 97, "unit": "%"}, {"measurement": "Efficacy Antag", "setting": "[5]", "result": 99, "unit": "%"}]}
{"molecule": "NC(=O)CC[C@@H]1NC(=O)[C@H](Cc2ccccc2)NC(=O)[C@H](Cc2ccc(O)cc2)NC(=O)CCSSC[C@@H](C(=O)N2CCC[C@H]2C(=O)N[C@H](CCCN=C(N)N)C(=O)NCC(N)=O)NC(=O)[C@H](CC(N)=O)NC1=O", "note": "[desmopressin]", "values": [{"measurement": "Fluid retention / vascular leak (fluid balance)", "setting": "[6]", "result": "decreased the effectiveness of the V1a agonist to the level of AVP"}, {"measurement": "Mean arterial pressure (MAP)", "setting": "[6]", "result": "decreased the effectiveness of the V1a agonist to the level of AVP"}, {"measurement": "peak Lp with PAF in presence of desmopressin relative to peak Lp with PAF alone", "setting": "[7]; desmopressin 10 pM for 40 minutes", "result": "not increased"}, {"measurement": "peak Lp with PAF in presence of desmopressin relative to peak Lp with PAF alone", "setting": "[7]; desmopressin 30 pM for 40 minutes, ±0.4 SEM, n=8", "result": 2.1, "unit": "fold"}, {"measurement": "peak Lp with PAF in presence of desmopressin relative to peak Lp with PAF alone", "setting": "[7]; desmopressin 100 pM for 40 minutes, ±0.9 SEM, n=5", "result": 2.8, "unit": "fold"}]}
{"molecule": "Cc1ccccc1C(=O)Nc1ccc(C(=O)N2CCCC(O)c3cc(Cl)ccc32)c(C)c1", "note": "(stereo not drawn) [tolvaptan]", "values": [{"measurement": "Efficacy Antag", "setting": "[2]", "result": 97, "unit": "%"}, {"measurement": "Efficacy Antag", "setting": "[3]", "result": 101, "unit": "%"}, {"measurement": "Efficacy Antag", "setting": "[4]", "result": 102, "unit": "%"}, {"measurement": "Ki", "setting": "[4]", "result": 3.3, "unit": "nM"}, {"measurement": "Efficacy Antag", "setting": "[5]", "result": 26, "unit": "%"}, {"measurement": "Ki", "setting": "[5]", "result": "> 338", "unit": "nM"}]}
{"molecule": "Cc1ccccc1C(=O)Nc1ccc(C(=O)N2CCCC(N(C)C)c3ccccc32)cc1", "note": "(stereo not drawn) [mozavaptan]", "values": [{"measurement": "Efficacy Antag", "setting": "[2]", "result": 107, "unit": "%"}, {"measurement": "Efficacy Antag", "setting": "[3]", "result": 85, "unit": "%"}, {"measurement": "Efficacy Antag", "setting": "[4]", "result": 85, "unit": "%"}, {"measurement": "Efficacy Antag", "setting": "[5]", "result": 40, "unit": "%"}]}
{"molecule": "NC(=O)CC[C@@H]1NC(=O)[C@H](Cc2ccccc2)NC(=O)[C@H](Cc2ccc(O)cc2)NC(=O)[C@@H](N)CSSC[C@@H](C(=O)N2CCC[C@H]2C(=O)N[C@@H](CCCN=C(N)N)C(=O)NCC(N)=O)NC(=O)[C@H](CC(N)=O)NC1=O", "note": "[Arginine vasopressin, AVP, arginine vasopressin]", "values": [{"measurement": "Efficacy", "setting": "[1]", "result": 100, "unit": "%"}, {"measurement": "Fluid retention / vascular leak (fluid balance)", "setting": "[6]", "result": "showed symptoms of vascular leak syndrome; also recorded: less effective"}, {"measurement": "Mean arterial pressure (MAP)", "setting": "[6]", "result": "efficacious in maintaining mean arterial pressure; also recorded: less effective"}]}
{"molecule": "[Pmp1,D-Ile2,Ile4,Arg8]vasopressin [[Pmp1, D-Ile2, Ile4]AVP]", "values": [{"measurement": "Efficacy Antag", "setting": "[4]", "result": 97, "unit": "%"}]}
{"molecule": "[Pmp1,D-Ile2,Ile4,Arg8]vasopressin-(1-8)-OH [[Pmp1, D-Ile2, Ile4]AVP-(1-8)-OH]", "values": [{"measurement": "Efficacy Antag", "setting": "[4]", "result": 105, "unit": "%"}]}
{"molecule": "NCCCC[C@H](NC(=O)[C@@H]1CCCN1C(=O)[C@@H]1CSSC[C@H](NC(=O)CNC(=O)CNC(=O)CN)C(=O)N[C@@H](Cc2ccc(O)cc2)C(=O)N[C@@H](Cc2ccccc2)C(=O)N[C@@H](CCC(N)=O)C(=O)N[C@@H](CC(N)=O)C(=O)N1)C(=O)NCC(N)=O", "note": "[H-Gly3-LVP, terlipressin, terlipressin] (H-GGGCYFQNCPKG-NH2; disulfide 4-9)", "values": [{"measurement": "Efficacy", "setting": "[8]", "result": 79, "unit": "%"}, {"measurement": "EC50", "setting": "[8]", "result": 121, "unit": "nM"}, {"measurement": "Efficacy", "setting": "[9]", "result": 66, "unit": "%"}, {"measurement": "EC50", "setting": "[9]", "result": 124, "unit": "nM"}]}
{"molecule": "NCCCC[C@H](NC(=O)[C@@H]1CCCN1C(=O)[C@@H]1CSSC[C@H](N)C(=O)N[C@@H](Cc2ccc(O)cc2)C(=O)N[C@@H](Cc2ccccc2)C(=O)N[C@@H](CCC(N)=O)C(=O)N[C@@H](CC(N)=O)C(=O)N1)C(=O)NCC(N)=O", "note": "[Lysine Vasopressin, LVP, lysine vasopressin]", "values": [{"measurement": "Efficacy", "setting": "[8]", "result": 92, "unit": "%"}, {"measurement": "EC50", "setting": "[8]", "result": 0.28, "unit": "nM"}, {"measurement": "Efficacy", "setting": "[9]", "result": 98, "unit": "%"}, {"measurement": "EC50", "setting": "[9]", "result": 0.94, "unit": "nM"}, {"measurement": "Efficacy", "setting": "[1]", "result": 99, "unit": "%"}, {"measurement": "EC50", "setting": "[1]; 5 hours", "result": 1.11, "unit": "nM"}, {"measurement": "Efficacy", "setting": "[10]", "result": 99, "unit": "%"}, {"measurement": "EC50", "setting": "[10]; 5 hours", "result": 0.2, "unit": "nM"}]}
{"molecule": "CCOc1ccc2c(c1)C1(CCC(OCCN3CCOCC3)CC1)C(=O)N2S(=O)(=O)c1ccc(C(=O)NC(C)(C)C)cc1OC", "note": "(stereo not drawn) [satavaptan]", "values": [{"measurement": "Efficacy Antag", "setting": "[2]", "result": 109, "unit": "%"}, {"measurement": "Ki", "setting": "[2]; [11]", "result": 1.5, "unit": "nM"}, {"measurement": "Efficacy Antag", "setting": "[3]", "result": 10, "unit": "%"}, {"measurement": "Ki", "setting": "[3]; [11]", "result": "> 950", "unit": "nM"}, {"measurement": "Efficacy Antag", "setting": "[4]", "result": 100, "unit": "%"}, {"measurement": "Ki", "setting": "[4]", "result": 0.6, "unit": "nM"}, {"measurement": "Efficacy Antag", "setting": "[5]", "result": 6, "unit": "%"}, {"measurement": "Ki", "setting": "[5]", "result": "> 338", "unit": "nM"}]}
